The record followed here is ChEMBL document CHEMBL1201862, “PubChem BioAssay data set” (2004).

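All cell lines were grown in 96-well plates and treated with compound for 48 hours. GI50: concentration for 50% inhibition of growth.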 Calls of active or inactive are those of the source. Rule as the data show it: active = GI50 up to about 1.1 µM and inactive = higher.

What all share (assay): NCI-60 cell line screen, 48 h
The subject of experiment [1] is K562.
Experiment [2] has as its system CAKI-1.
Experiment [3] concerns OVCAR-4.
The test system of experiment [4] is DU-145.
Experiment [5] has as its system XF498.
Experiment [6] relates to SW-620.
In experiment [7] the test system is DMS-273.
Experiment [8] has as its system HCT-15.
Experiment [9] has as its system COLO 205.
Experiment [10] has as its system SK-MEL-2.
Experiment [11] has as its system MDA-N.
For experiment [12], the system named is HCT-116.
In experiment [13] the test system is NCI-H522.
Experiment [14] has as its system SNB-78.
The test system of experiment [15] is RPMI-8226.
The subject of experiment [16] is Malme-3M.
Experiment [17] concerns SK-OV-3.
Experiment [18] has as its system LXFL 529.
Experiment [19] relates to Hs-578T.
Experiment [20] concerns M19-MEL.

As for `O=C1C(Nc2ccc(S(=O)(=O)Nc3cnc4ccccc4n3)cc2)=C/C(=N\c2ccc(S(=O)(=O)Nc3cnc4ccccc4n3)cc2)c2ccccc21`, the GI50 in experiment [1] is 28.1 µM (inactive); in experiment [2], 16.4 µM (inactive); in [3], 20.8 µM (inactive); in experiment [4] it was 16.9 µM (inactive); in experiment [5], 25.5 µM (inactive); in [6], 17.5 µM (inactive). In addition, the GI50 in experiment [7] was 12 µM (inactive); in experiment [8] it was 18.4 µM; in experiment [9] it was 18.5 µM (inactive); in experiment [10] it was 17.9 µM (inactive); in [11], 18.8 µM (inactive); in [12], 18.3 µM (inactive). The GI50 is 16.8 µM (inactive) in experiment [13]; 22.5 µM (inactive) in experiment [14]; 27.9 µM (inactive) in [15]; 17.9 µM (inactive) in experiment [16]; 17.2 µM (inactive) in [17]; 15.2 µM (inactive) in [18]. Further, the GI50 was 37.2 µM (inactive) in experiment [19] and 16.6 µM (inactive) in [20].
Consider `COc1ccccc1C(=O)N(Cc1ccccc1)c1ccc(Cl)c(C(=O)OC(C)C)c1`, for which the GI50 in experiment [1] was 6.89 µM (inactive); in [2], 12.3 µM (inactive); in [3] it was 15.6 µM (inactive); in experiment [4] it was 32.4 µM (inactive); in experiment [5], 14.2 µM (inactive); in experiment [6], 31.8 µM (inactive). Further, the GI50 in [7] was 5.98 µM (inactive); in experiment [8], 19.8 µM; in experiment [9], 20.9 µM (inactive); in [10], 14.9 µM (inactive); in experiment [11] it was 38.2 µM (inactive); in experiment [12], 13.7 µM (inactive). Besides, the GI50 in experiment [13] was 5.93 µM (inactive); in [14], 19.1 µM (inactive); in [15], 5.69 µM (inactive); in [16], 21.9 µM (inactive); in experiment [17], 25.4 µM (inactive); in [18], 23 µM (inactive). Besides, the results for the GI50 in [19] and in experiment [20] were 61.1 µM (inactive) and 25.8 µM (inactive), respectively.
